# Results taken from PubChem BioAssay AID1963854 (Molecular Pharmacology Branch, DTP, NCI, 2024).
# Test system: 186277-243-T-J2-PDC complex spheroid viability
# Assay: Anticancer human tumor 186277-243-T-J2-PDC patient-derived colon adenocarcinoma cell line growth inhibition [POLQ]
# Details: for IC50: curve of first compound; for viability, T/C: stronger effect = lower value
# In short: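 Three-cell-type spheroids modelling solid tumor plus stroma served as the readout system; POL inhibitors were tested individually and in combination, concentration ranges set by clinical Cmax where known.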
# [1] = second compound 0.0316 µM, first compound 0.0316 µM
# [2] = second compound 0.0316 µM, first compound 0.1 µM
# [3] = second compound 0.0316 µM, first compound 0.316 µM
# [4] = second compound 0.0316 µM, first compound 1 µM
# [5] = second compound 0.0316 µM, first compound 3.16 µM
# [6] = second compound 0.0316 µM, first compound 10 µM
# [7] = second compound 0.1 µM, first compound 0.0316 µM
# [8] = second compound 0.1 µM, first compound 0.1 µM
# [9] = second compound 0.1 µM, first compound 0.316 µM
# [10] = second compound 0.1 µM, first compound 1 µM
# [11] = second compound 0.1 µM, first compound 3.16 µM
# [12] = second compound 0.1 µM, first compound 10 µM
# [13] = second compound 0.316 µM, first compound 0.0316 µM
# [14] = second compound 0.316 µM, first compound 0.1 µM
# [15] = second compound 0.316 µM, first compound 0.316 µM
# [16] = second compound 0.316 µM, first compound 1 µM
# [17] = second compound 0.316 µM, first compound 3.16 µM
# [18] = second compound 0.316 µM, first compound 10 µM
# [19] = second compound 1 µM, first compound 0.0316 µM
# [20] = second compound 1 µM, first compound 0.1 µM
# [21] = second compound 1 µM, first compound 0.316 µM
# [22] = second compound 1 µM, first compound 1 µM
# [23] = second compound 1 µM, first compound 3.16 µM
# [24] = second compound 1 µM, first compound 10 µM
# [25] = second compound 3.16 µM, first compound 0.0316 µM
# [26] = second compound 3.16 µM, first compound 0.1 µM
# [27] = second compound 3.16 µM, first compound 0.316 µM
# [28] = second compound 3.16 µM, first compound 1 µM
# [29] = second compound 3.16 µM, first compound 3.16 µM
# [30] = second compound 3.16 µM, first compound 10 µM
# [31] = second compound 10 µM, first compound 0.0316 µM
# [32] = second compound 10 µM, first compound 0.1 µM
# [33] = second compound 10 µM, first compound 0.316 µM
# [34] = second compound 10 µM, first compound 1 µM
# [35] = second compound 10 µM, first compound 3.16 µM
# [36] = second compound 10 µM, first compound 10 µM
# 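Also: spheroids exposed to compounds for seven days.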
# 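For viability, T/C in this document: 100% = DMSO vehicle control viability.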
compound,measurement,setting,value
O=C(c1cc(Cc2n[nH]c(=O)c3ccccc23)ccc1F)N1CCN(C(=O)C2CC2)CC1 + Nc1ccc(C#CCN(C(=O)Cc2ncc(C(F)(F)F)cc2C(F)(F)F)c2ccc(F)cc2)nn1,IC50,second compound 0.0316 µM,> 10000 nM
same,IC50,second compound 0.1 µM,> 10000 nM
same,IC50,second compound 0.316 µM,> 10000 nM
same,IC50,second compound 1 µM,> 10000 nM
same,IC50,second compound 3.16 µM,> 10000 nM
same,IC50,second compound 10 µM,> 10000 nM
same,"viability, T/C",[1],105%
same,"viability, T/C",[2],89.9%
same,"viability, T/C",[3],106%
same,"viability, T/C",[4],92.3%
same,"viability, T/C",[5],107%
same,"viability, T/C",[6],121%
same,"viability, T/C",[7],97.5%
same,"viability, T/C",[8],91.6%
same,"viability, T/C",[9],111%
same,"viability, T/C",[10],101%
same,"viability, T/C",[11],104%
same,"viability, T/C",[12],117%
same,"viability, T/C",[13],100%
same,"viability, T/C",[14],96.7%
same,"viability, T/C",[15],98.2%
same,"viability, T/C",[16],93.7%
same,"viability, T/C",[17],102%
same,"viability, T/C",[18],120%
same,"viability, T/C",[19],96.1%
same,"viability, T/C",[20],101%
same,"viability, T/C",[21],98.7%
same,"viability, T/C",[22],105%
same,"viability, T/C",[23],115%
same,"viability, T/C",[24],108%
same,"viability, T/C",[25],95%
same,"viability, T/C",[26],107%
same,"viability, T/C",[27],110%
same,"viability, T/C",[28],95.2%
same,"viability, T/C",[29],110%
same,"viability, T/C",[30],105%
same,"viability, T/C",[31],106%
same,"viability, T/C",[32],110%
same,"viability, T/C",[33],99.5%
same,"viability, T/C",[34],102%
same,"viability, T/C",[35],117%
same,"viability, T/C",[36],95.1%
C=CCn1c(=O)c2cnc(Nc3ccc(N4CCN(C)CC4)cc3)nc2n1-c1cccc(C(C)(C)O)n1 + COC1C(OC(N)=O)C(O)C(Oc2ccc3c(O)c(NC(=O)c4ccc(O)c(CC=C(C)C)c4)c(=O)oc3c2C)OC1(C)C,IC50,second compound 0.0316 µM,189 nM
same,IC50,second compound 0.1 µM,185 nM
same,IC50,second compound 0.316 µM,190 nM
same,IC50,second compound 1 µM,182 nM
same,IC50,second compound 3.16 µM,177 nM
same,IC50,second compound 10 µM,178 nM
same,"viability, T/C","second compound 0.0316 µM, first compound 0.00316 µM",100%
same,"viability, T/C","second compound 0.0316 µM, first compound 0.01 µM",88.2%
same,"viability, T/C",[1],109%
same,"viability, T/C",[2],93.4%
same,"viability, T/C",[3],14.8%
same,"viability, T/C",[4],7.82%
same,"viability, T/C","second compound 0.1 µM, first compound 0.00316 µM",83.8%
same,"viability, T/C","second compound 0.1 µM, first compound 0.01 µM",97.8%
same,"viability, T/C",[7],107%
same,"viability, T/C",[8],91.3%
same,"viability, T/C",[9],13.7%
same,"viability, T/C",[10],7.76%
same,"viability, T/C","second compound 0.316 µM, first compound 0.00316 µM",93.4%
same,"viability, T/C","second compound 0.316 µM, first compound 0.01 µM",87.7%
same,"viability, T/C",[13],99.2%
same,"viability, T/C",[14],100%
same,"viability, T/C",[15],14.1%
same,"viability, T/C",[16],8.59%
same,"viability, T/C","second compound 1 µM, first compound 0.00316 µM",103%
same,"viability, T/C","second compound 1 µM, first compound 0.01 µM",104%
same,"viability, T/C",[19],104%
same,"viability, T/C",[20],91.8%
same,"viability, T/C",[21],11.1%
same,"viability, T/C",[22],8.27%
same,"viability, T/C","second compound 3.16 µM, first compound 0.00316 µM",104%
same,"viability, T/C","second compound 3.16 µM, first compound 0.01 µM",96.2%
same,"viability, T/C",[25],109%
same,"viability, T/C",[26],85.8%
same,"viability, T/C",[27],13.5%
same,"viability, T/C",[28],7.48%
same,"viability, T/C","second compound 10 µM, first compound 0.00316 µM",104%
same,"viability, T/C","second compound 10 µM, first compound 0.01 µM",110%
same,"viability, T/C",[31],95.2%
same,"viability, T/C",[32],87.6%
same,"viability, T/C",[33],12%
same,"viability, T/C",[34],7.75%
CC1COCCN1c1cc(-c2ccnn2C)c2ccnc(-c3ccn[nH]3)c2n1 (stereo unspecified) + Cc1cccc(N(C)C(=O)C2C(O)CCN2c2nc(C)cc(C(F)(F)F)c2C#N)c1,IC50,second compound 0.0316 µM,41.5 nM
same,IC50,second compound 0.1 µM,46.8 nM
same,IC50,second compound 0.316 µM,50.4 nM
same,IC50,second compound 1 µM,48.9 nM
same,IC50,second compound 3.16 µM,46.8 nM
same,IC50,second compound 10 µM,41.7 nM
same,"viability, T/C",[1],61.5%
same,"viability, T/C",[2],13%
same,"viability, T/C",[3],5%
same,"viability, T/C",[4],4.41%
same,"viability, T/C",[5],4.26%
same,"viability, T/C",[6],4.75%
same,"viability, T/C",[7],69.2%
same,"viability, T/C",[8],12.7%
same,"viability, T/C",[9],5.72%
same,"viability, T/C",[10],4.22%
same,"viability, T/C",[11],3.97%
same,"viability, T/C",[12],4.43%
same,"viability, T/C",[13],74.4%
same,"viability, T/C",[14],14.2%
same,"viability, T/C",[15],5.49%
same,"viability, T/C",[16],4.49%
same,"viability, T/C",[17],3.63%
same,"viability, T/C",[18],4.89%
same,"viability, T/C",[19],72.3%
same,"viability, T/C",[20],13.7%
same,"viability, T/C",[21],6.05%
same,"viability, T/C",[22],4.53%
same,"viability, T/C",[23],4.55%
same,"viability, T/C",[24],5.17%
same,"viability, T/C",[25],68.1%
same,"viability, T/C",[26],15.1%
same,"viability, T/C",[27],5.47%
same,"viability, T/C",[28],4.21%
same,"viability, T/C",[29],4.54%
same,"viability, T/C",[30],4.6%
same,"viability, T/C",[31],62.2%
same,"viability, T/C",[32],11.4%
same,"viability, T/C",[33],4.96%
same,"viability, T/C",[34],3.76%
same,"viability, T/C",[35],5.16%
same,"viability, T/C",[36],4.53%
